Laboratory results taken from patent US9340543B2, “Helquat derivatives, preparation thereof, and use thereof as medicaments” (USTAV ORGANICKE CHEMIE A BIOCHEMIE AKADEMIE VED CR, V.V.I., priority 2013, dated 2016).
Read-outs that look alike come from different tables or passages of the source.

Key:
Hep G2 = experiment: CellTiter-Glo luminescent cell viability assay (ATP quantification), Hep G2; type: cell-based; conditions: hepatocellular carcinoma cells, 72 h treatment, viable cells by ATP luminescence
Procedure: (§1) Influence of the test compounds on viability (proliferation) of cell lines used was investigated in concentration range 0-100 μmol·l^−1.
Adherent cell line Hep G2 is a permanent in vitro culture derived from liver tissue of a patient with hepatocellular carcinoma. Hep G2 cell line was cultivated in DMEM medium (Sigma-Aldrich, cat. no. M4528) with addition of 2 mmol·l^−1 glutamine (Invitrogen, see above), 10% fetal bovine serum (FBS, Sigma-Aldrich, see above), 100 IU/ml peniciline, 100 μg/ml streptomycine (Sigma-Aldrich, see above). Passaging was performed twice a week. After washing of cells with sterile PBS, the cells were released by 0.25% trypsin/EDTA (Sigma-Aldrich, see above) at 37° C. for 2 minutes. The trypsin was inactivated by addition of 2 volumes of complete medium, cells were then centrifuged (250×g, 5 min), resuspended, and transferred in the amount needed into a new cultivation bottle with fresh medium. Population doubling time of Hep G2 cell line was 28 h under the cultivation conditions used.
(§2) In order to test the sensitivity of the cell lines towards the studied helquats, cytotoxity test for cell viability assessment based on ATP quantification in cell lysates was used (CellTiter-Glo® Luminescent Cell Viability Assay, Promega, cat. no. G7571). In this test, ATP in cell lysates is detected using luciferase reaction. Luminescence intensity correlates with the ATP level and thus with quantity of metabolically active (viable) cells. IC50 value serves as the output, that is the concentration of the test compound which leads to 50% reduction in number of viable cells as compared to control, untreated population. To this end, IC50 value reflects efficiency of the test compound with regard to the given cell line.
Cells in the exponential growth phase were seeded into a 96-well microtiter plate were plated at 3000 cells per well. Each well contained 90 μl of cell suspension. The next day, 10 μl of 10× concentrated test compound solutions were added. The effect of helquats was investigated in concentration range 1 to 100 μmol·l^−1 (e.g. 1; 2.5; 5; 7.5; 10; 15; 25; 50 and 100 μmol·l^−1). Apart from the section containing the concentration series of the test compound, each well contained 2 control columns, the first with pure medium (so called blank) and the second with cells in medium without the test compounds (control). Into wells containing controls and blanks, volume of solvent (water) equal to the volume of added compound solutions was added. After 72 h of incubation with the test compounds viability was determined according to the manufacturer's instructions. […] Next, after the well had been left in the dark for 15 min, the luminescence was measured in each well using luminometer (Tecan Genios, Austria). […]

CCRF-CEM = experiment: CellTiter-Glo luminescent cell viability assay (ATP quantification), CCRF-CEM; type: cell-based; conditions: acute lymphoblastic leukemia cells, 72 h treatment, viable cells by ATP luminescence
Procedure: as §1
Suspension cell line CCRF-CEM is a permanent in vitro culture of acute lymphoblastic leukemia. CCRF-CEM cell line was cultivated in RPMI 1640 medium (Sigma-Aldrich, cat. no. R8758) with addition of 2 mmol·l^−1 glutamine (Invitrogen, cat. no. 35050-038), 10% fetal bovine serum (FBS, Sigma-Aldrich, cat. no. F9665), 100 IU/ml peniciline, 100 μg/ml streptomycine (Sigma-Aldrich, cat. no. P0781). Passaging was performed 2-3× a week. Population doubling time of CCRF-CEM cell line was 20 h under the cultivation conditions used.
as §2
(§3) Cells in the exponential growth phase were seeded into a 96-well microtiter plate were plated at 3000 cells per well. Each well contained 90 μl of cell suspension. The next day, 10 μl of 10× concentrated test compound solutions were added. The effect of helquats was investigated in concentration range 1 to 100 μmol·l^−1 (e.g. 1; 2.5; 5; 7.5; 10; 15; 25; 50 and 100 μmol·l^−1). Apart from the section containing the concentration series of the test compound, each well contained 2 control columns, the first with pure medium (so called blank) and the second with cells in medium without the test compounds (control). Into wells containing controls and blanks, volume of solvent (water) equal to the volume of added compound solutions was added. After 72 h of incubation with the test compounds viability was determined according to the manufacturer's instructions. In short: microtiter well plate was left 30 min to reach the room temperature after it has been removed from the incubator. Then, into each well, 100 μl of the prepared detection agent was added. Next, the well plate was shaken for 2 min to complete the full lysis. Next, after the well had been left in the dark for 15 min, the luminescence was measured in each well using luminometer (Tecan Genios, Austria).
(§4) IC50 value represents concentration of the test compound, which leads to 50% reduction of viable cells (inhibition of cell growth) after 72 h of the treatment. Each helquat concentration was tested in triplicates in a IC50 quantification and at least 3 independent IC50 quantification experiments were performed. IC50 values over 100 μmol·l^−1 were obtained by extrapolation of data measured in concentration range 0-100 μmol·l^−1 for the given helquat.

HUVEC = experiment: CellTiter-Glo luminescent cell viability assay (ATP quantification), HUVEC normal cells; type: cell-based, human; conditions: 72 h treatment
Procedure: as §1
Normal human endothelial cells from umbilical vein are adherent cells cultivated in plastic Petri dishes coated with collagen I. Into the cultivation medium (E-STIM™; BD Biosciences, cat. co. 355054) already containing 2% FBS (fetal bovine serum), hydrocortisone and heparin the following two further ingredients were added: epidermal growth factor (EGF, 5 μg) and mixture of factors facilitating growth of endothelial cells (ECGS, 100 mg). […] The cells were passaged after reaching 90% confluency by dissociation using 0.25% solution of trypsin/EDTA (1 ml; 3 min; 37° C.). After that 5 ml of complete cultivation medium E-STIM™ was added and the cells were centrifuged (180×g, 7 min), the pellet was resuspended, and transferred in the amount needed into a new Petri dish with fresh medium. The cells were used in experiments between the 3rd and the 8th passage after defreezing. Population doubling time of HUVEC cell line was 38 h under the cultivation conditions used.
as §2, §3, §4

SMILES | IC50 (Hep G2; read-out: IC50 HepG2) | IC50 (CCRF-CEM) | IC50 (HUVEC; normal human endothelial cells, numeric bound, values over 100 obtained by extrapolation of data measured at 0-100 μmol·l−1) | IC50 (Hep G2; Homo sapiens, HepG2) | IC50 (CCRF-CEM; Homo sapiens, CCRF-CEM) | IC50 (HUVEC; HUVEC, normal human endothelial cells, numeric bound, values over 100 obtained by extrapolation of data measured at 0-100 μmol·l−1) | IC50 (HUVEC; normal human endothelial cells from umbilical vein, viable cells by ATP luminescence, class symbols)
Cc1c(C)c2c(c3c1CC[n+]1ccc(/C=C/c4ccc(N(C)C)cc4)cc1-3)-c1c3ccccc3cc[n+]1CC2 [(M)-1, (M)-(E)-13-(4-(dimethylamino)styryl)-6,7-dimethyl-4,5,8,9-tetrahydroiso-quinolino[1,2-a]pyrido[1,2-k][2,9]phenanthroline-3,10-diium trifluoromethanesulfonate] | 11 to 50 µM | < 10 µM | > 150 µM | – | – | – | –
COc1ccc(/C=C/c2cc[n+]3c(c2)-c2c(c(C)c(C)c4c2-c2c5ccccc5cc[n+]2CC4)CC3)cc1 [(M)-6, (M)-(E)-13-(4-methoxystyryl)-6,7-dimethyl-4,5,8,9-tetrahydroisoquinolino[1,2-a]pyrido[1,2-k][2,9]phenanthroline-3,10-diium trifluoromethanesulfonate] | – | – | – | 11 to 50 µM | 11 to 50 µM | > 150 µM | –
COc1ccc2cc(/C=C/c3cc[n+]4c(c3)-c3c(c(C)c(C)c5c3-c3c6ccccc6cc[n+]3CC5)CC4)ccc2c1 [(M)-7, (M)-(E)-13-(2-(6-methoxynaphthalene-2-yl)vinyl)-6,7-dimethyl-4,5,8,9-tetrahydroisoquinolino[1,2-a]pyrido[1,2-k][2,9]phenanthroline-3,10-diium trifluoromethanesulfonate] | 11 to 50 µM | < 10 µM | – | – | – | – | 51 to 150 µM
